{"source": "patent US12102634B2", "about": "“Use of berbamine or its analogue for preventing or treating RNA virus infection” (City University of Hong Kong, priority 2019, dated 2024)", "key": {"[1]": {"test_system": "ZIKV", "assay": "Viral positive RNA strand hybridization in host cells treated with calcium chelator", "format": "cell-based, Zika virus"}, "[2]": {"test_system": "JEV", "assay": "Western blot of JEV envelope protein in A549 cells", "settings": "dose dependent"}, "[3]": {"test_system": "JEV", "assay": "High-content image assay (DsRNA immunostaining), JEV infection of A549 cells", "settings": "for JEV infection in A549 host cells (relative infectivity, FIG. 8A): 13 compounds from virtual screening; for entry of JEV into the host cells (FIG. 8B): A549 cells; for entry of JEV into the host cells (FIG. 8B) / JEV infection of host cells: about 50 MOI JEV; for JEV infection of host cells: A549 cells pretreated 1 h"}, "[4]": {"test_system": "JEV", "assay": "Western blot of JEV-NS1 expression in JEV-infected A549 cells", "settings": "A549 cells pretreated 1 h"}, "[5]": {"test_system": "ZIKV", "assay": "High-content image assay, ZIKV infection of JEG-3 cells", "settings": "JEG-3 cells pretreated 1 h, about 50 MOI, 18 h"}, "[6]": {"test_system": "ZIKV", "assay": "Western blot of ZIKV-E expression in ZIKV-infected A549 cells", "settings": "A549 cells pretreated 1 h"}, "[7]": {"test_system": "JEV", "assay": "High-content image assay, JEV infection of JEG-3 cells", "settings": "JEG-3 cells pretreated 1 h, about 50 MOI, 18 h"}, "[8]": {"test_system": "TRPMLs", "assay": "ML-SA1-induced cytosolic Ca2+ increase in Fura-2-loaded HeLa cells", "format": "cell-based", "settings": "25 μM", "procedure": "HeLa cells were grown in 24-well plates to ˜80% confluency. The cells were then loaded with HBSS (Gibco, 14025092) containing 4 μM Fura-2 AM (Invitrogen, F1221) and 0.4% Pluronic™ F-127 (Invitrogen, P3000MP) at room temperature for 30 min. The cells were then washed with Ca^2+-free HBSS containing 2 mM EGTA and incubated in Ca^2+-free HBSS in the presence or absence of berbamine (10 μM) at room temperature for another 30 min. Fluorescence images were acquired at 3 s intervals by alternate excitation at 340 nm and 380 nm with emission at 510 nm using a Nikon Eclipse Ti-S Calcium imaging system. Approximately 1 min after live cell imaging, 200 μM GPN (Abcam, ab145914) or 25 μM ML-SA1 (Tocris Bioscience, 4746) was added to the cells to trigger Ca2+ release from the lysosomes."}, "[9]": {"test_system": "ZIKV", "assay": "High-content image assay (DsRNA immunostaining), ZIKV infection of A549 cells", "settings": "A549 cells pretreated 1 h, about 50 MOI ZIKV"}, "[10]": {"test_system": "DENV-2", "assay": "DsRNA immunostaining, DENV-2 infection of A549 cells", "settings": "pretreated 1 h, about 10 MOI DENV-2, dose dependent"}}}
{"smiles": "CC(=O)OCOC(=O)CN(CC(=O)OCOC(C)=O)c1ccccc1OCCOc1ccccc1N(CC(=O)OCOC(C)=O)CC(=O)OCOC(C)=O", "note": "[BAPTA-AM]", "values": [{"measurement": "viral positive RNA strand inside host cells", "setting": "[1]", "result": "no ZIKV positive RNA strand was spotted"}, {"measurement": "expression of JEV envelope protein", "setting": "[2]", "result": "markedly inhibited"}]}
{"smiles": "COc1cc(C(=O)N2c3ccccc3CCC2C)cc(OC)c1OC", "note": "(stereo not shown) [Compound #1]", "values": [{"measurement": "JEV infection in A549 host cells (relative infectivity, FIG. 8A)", "setting": "[3]", "result": "highest potency"}, {"measurement": "entry of JEV into the host cells (FIG. 8B)", "setting": "[3]", "result": "effectively block"}]}
{"smiles": "COc1cc2c(cc1OC)C(C)N(C(=O)c1ccc(Br)cc1)CC2", "note": "(stereo not shown) [Compound #7]", "values": [{"measurement": "JEV infection in A549 host cells (relative infectivity, FIG. 8A)", "setting": "[3]", "result": "highest potency"}, {"measurement": "entry of JEV into the host cells (FIG. 8B)", "setting": "[3]", "result": "effectively block"}]}
{"smiles": "COc1cc2c(cc1OC)C(c1cc(OC)c(OC)c(OC)c1)OCC2", "note": "(stereo not shown) [Compound #9]", "values": [{"measurement": "JEV infection in A549 host cells (relative infectivity, FIG. 8A)", "setting": "[3]", "result": "highest potency"}, {"measurement": "entry of JEV into the host cells (FIG. 8B)", "setting": "[3]", "result": "effectively block"}]}
{"smiles": "COc1cccc(C(=O)CC2c3c(cc4c(c3OC)OCO4)CCN2C)c1", "note": "(stereo not shown) [Compound #11]", "values": [{"measurement": "JEV infection in A549 host cells (relative infectivity, FIG. 8A)", "setting": "[3]", "result": "highest potency"}, {"measurement": "entry of JEV into the host cells (FIG. 8B)", "setting": "[3]", "result": "effectively block"}]}
{"smiles": "COc1cc2c3cc1Oc1c(OC)c(OC)cc4c1[C@@H](Cc1ccc(OC(=O)c5ccc([N+](=O)[O-])cc5)c(c1)Oc1ccc(cc1)C[C@@H]3N(C)CC2)N(C)CC4", "note": "[E6 berbamine]", "values": [{"measurement": "protein expression of JEV-NS1", "setting": "[4]", "result": "strong inhibition"}, {"measurement": "ZIKV infection in JEG-3 cells", "setting": "[5]", "result": "significantly inhibited"}, {"measurement": "protein expression of ZIKV-E", "setting": "[6]", "result": "strong inhibition"}, {"measurement": "JEV infection in JEG-3 cells", "setting": "[7]", "result": "significantly inhibited"}]}
{"smiles": "CC1CC(C)(C)N(C(=O)CN2C(=O)c3ccccc3C2=O)c2ccccc21", "note": "(stereo not shown) [ML-SA1, reference compound]", "values": [{"measurement": "cytosolic Ca2+ levels (agonist effect)", "setting": "[8]", "result": "markedly increased"}]}
{"smiles": "COc1ccc2cc1Oc1ccc(cc1)C[C@H]1c3cc(c(OC)cc3CCN1C)Oc1c(O)c(OC)cc3c1[C@H](C2)N(C)CC3", "note": "[fangchinoline]", "values": [{"measurement": "ZIKV infection of host cells", "setting": "[9]", "result": "significantly inhibited"}, {"measurement": "DENV-2 infection in A549 cells", "setting": "[10]", "result": "significantly inhibit"}, {"measurement": "JEV infection of host cells", "setting": "[3]", "result": "significantly inhibited"}, {"measurement": "ZIKV infection in JEG-3 cells", "setting": "[5]", "result": "significantly inhibited"}, {"measurement": "JEV infection in JEG-3 cells", "setting": "[7]", "result": "significantly inhibited"}]}
{"smiles": "COc1ccc2cc1Oc1ccc(cc1)C[C@H]1c3cc(c(OC)cc3CCN1C)Oc1c(OC)c(OC)cc3c1[C@@H](C2)N(C)CC3", "note": "[isotetrandrine]", "values": [{"measurement": "ZIKV infection of host cells", "setting": "[9]", "result": "significantly inhibited"}, {"measurement": "DENV-2 infection in A549 cells", "setting": "[10]", "result": "significantly inhibit"}, {"measurement": "JEV infection of host cells", "setting": "[3]", "result": "significantly inhibited"}, {"measurement": "ZIKV infection in JEG-3 cells", "setting": "[5]", "result": "significantly inhibited"}, {"measurement": "JEV infection in JEG-3 cells", "setting": "[7]", "result": "significantly inhibited"}]}
